For three molecules, Activity results are on record in ChEMBL document CHEMBL5325441, “Current and emerging therapies for Achondroplasia: The dawn of precision medicine” (2023).

Active and inactive are the calls of the source. No cut-off for these calls is given here.

Assay [1] concerns Bone. Briefly: Induction of bone regrowth in achondroplasia mouse model expressing FGFR3 Y367C mutant assessed as improvement in dwarfism by measuring foramen magnum bone size at 240 microg/kg, sc qd administered for 21 days. The format is functional, organism-based. The conditions noted are these: dose 240.0 µg/kg, time 21.0 day.
Assay [2] has as its system Bone. The assay is described as follows: Induction of bone regrowth in achondroplasia mouse model expressing FGFR3 Y367C mutant assessed as improvement in dwarfism by measuring tail bone size at 240 microg/kg, sc qd administered for 21 days. The format is functional, organism-based. The conditions noted are these: dose 240.0 µg/kg, time 21.0 day.
Assay [3] concerns Bone. The assay is described as follows: Induction of bone regrowth in achondroplasia mouse model expressing FGFR3 Y367C mutant assessed as improvement in dwarfism by measuring anterior-posterior diameter of the skull size at 240 microg/kg, sc qd administered for 21 days. The class given is functional, organism-based. The conditions noted are these: dose 240.0 µg/kg, time 21.0 day.

For assay [4], the system named is Bone. Briefly: Induction of bone regrowth in achondroplasia mouse model expressing FGFR3 Y367C mutant assessed as improvement in dwarfism by measuring L4-L6 spine segment size at 240 microg/kg, sc qd administered for 21 days. The conditions noted are these: dose 240.0 µg/kg, time 21.0 day. The format is functional, organism-based.
In assay [5] the test system is Bone. Briefly: Induction of bone regrowth in achondroplasia mouse model assessed as improvement in dwarfism by measuring L4-L6 spine segment size at 800 microg/kg, sc qd administered for 21 days. The class given is functional, organism-based. The conditions noted are these: dose 800.0 µg/kg, time 21.0 day.
Assay [6] has as its system Bone. The assay is described as follows: Induction of bone regrowth in achondroplasia mouse model assessed as improvement in dwarfism by measuring tibia bone size at 800 microg/kg, sc qd administered for 21 days. The format is functional, organism-based. The conditions noted are these: dose 800.0 µg/kg, time 21.0 day.
Assay [7] has as its system Bone. The assay is described as follows: Induction of bone regrowth in achondroplasia mouse model assessed as improvement in dwarfism by measuring anterior-posterior diameter of the skull size at 800 microg/kg, sc qd administered for 21 days. The format is functional, organism-based. The conditions noted are these: dose 800.0 µg/kg, time 21.0 day.
The subject of assay [8] is Bone. Briefly: Induction of bone regrowth in achondroplasia mouse model assessed as improvement in dwarfism by measuring foramen magnum bone size at 800 microg/kg, sc qd administered for 21 days. The conditions noted are these: dose 800.0 µg/kg, time 21.0 day. The format is functional, organism-based.
For assay [9], the system named is Bone. The assay is described as follows: Induction of bone regrowth in achondroplasia mouse model assessed as improvement in dwarfism by measuring tail bone size at 800 microg/kg, sc qd administered for 21 days. The format is functional, organism-based. The conditions noted are these: dose 800.0 µg/kg, time 21.0 day.
Assay [10] deals with Bone. The assay is described as follows: Induction of bone regrowth in achondroplasia mouse model expressing FGFR3 Y367C mutant assessed as improvement in dwarfism by measuring tibia bone size at 240 microg/kg, sc qd administered for 21 days. The format is functional, organism-based. The conditions noted are these: dose 240.0 µg/kg, time 21.0 day.
Assay [11] has as its system Bone. Briefly: Induction of bone regrowth in achondroplasia mouse model expressing FGFR3 Y367C mutant assessed as improvement in dwarfism by measuring femur bone size at 240 microg/kg, sc qd administered for 21 days. The class given is functional, organism-based. The conditions noted are these: dose 240.0 µg/kg, time 21.0 day.
Assay [12] concerns Bone. Briefly: Induction of bone regrowth in achondroplasia mouse model assessed as improvement in dwarfism by measuring femur bone size at 800 microg/kg, sc qd administered for 21 days. The format is functional, organism-based. The conditions noted are these: dose 800.0 µg/kg, time 21.0 day.
Assay [13] has as its system Bone. Briefly: Induction of bone regrowth in achondroplasia C57BL/6 mouse model expressing FGFR3 Y367C mutant assessed as improvement in dwarfism by measuring tail bone size at 2 mg/kg, sc administered for 15 days. The format is functional. The conditions noted are these: time 15 day.
Assay [14] deals with Bone. Briefly: Induction of bone regrowth in achondroplasia C57BL/6 mouse model expressing FGFR3 Y367C mutant assessed as improvement in dwarfism by measuring tibia bone size at 2 mg/kg, sc administered for 15 days. The class given is functional. The conditions noted are these: time 15 day.
Assay [15] deals with Bone. The assay is described as follows: Induction of bone regrowth in achondroplasia C57BL/6 mouse model expressing FGFR3 Y367C mutant assessed as improvement in dwarfism by measuring humerus bone size at 2 mg/kg, sc administered for 15 days. The conditions noted are these: time 15 day. The format is functional.
The subject of assay [16] is Bone. The assay is described as follows: Induction of bone regrowth in achondroplasia C57BL/6 mouse model expressing FGFR3 Y367C mutant assessed as improvement in dwarfism by measuring foramen magnum bone size at 2 mg/kg, sc administered for 15 days. The class given is functional. The conditions noted are these: time 15 day.
Assay [17] deals with Bone. Briefly: Induction of bone regrowth in achondroplasia C57BL/6 mouse model expressing FGFR3 Y367C mutant assessed as improvement in dwarfism by measuring tibia bone size at 0.5 mg/kg, sc qd administered for 15 days. The class given is functional. The conditions noted are these: time 15 day.
Assay [18] relates to Bone. The assay is described as follows: Induction of bone regrowth in achondroplasia C57BL/6 mouse model expressing FGFR3 Y367C mutant assessed as improvement in dwarfism by measuring femur bone size at 2 mg/kg, sc administered for 15 days. The format is functional. The conditions noted are these: time 15 day.
Assay [19] concerns Bone. The assay is described as follows: Induction of bone regrowth in achondroplasia C57BL/6 mouse model expressing FGFR3 Y367C mutant assessed as improvement in dwarfism by measuring ulna bone size at 0.5 mg/kg, sc qd administered for 15 days. The class given is functional. The conditions noted are these: time 15 day.
In assay [20] the test system is Bone. The assay is described as follows: Induction of bone regrowth in achondroplasia C57BL/6 mouse model expressing FGFR3 Y367C mutant assessed as improvement in dwarfism by measuring L4-L6 spine segment size at 2 mg/kg, sc administered for 15 days. The conditions noted are these: time 15 day. The class given is functional.
For assay [21], the system named is Bone. The assay is described as follows: Induction of bone regrowth in achondroplasia C57BL/6 mouse model expressing FGFR3 Y367C mutant assessed as improvement in dwarfism by measuring anterior-posterior diameter of the skull size at 2 mg/kg, sc administered for 15 days. The conditions noted are these: time 15 day. The format is functional.
For assay [22], the system named is Bone. Briefly: Induction of bone regrowth in achondroplasia C57BL/6 mouse model expressing FGFR3 Y367C mutant assessed as improvement in dwarfism by measuring humerus bone size at 0.5 mg/kg, sc qd administered for 15 days. The format is functional. The conditions noted are these: time 15 day.
Assay [23] relates to Bone. The assay is described as follows: Induction of bone regrowth in achondroplasia C57BL/6 mouse model expressing FGFR3 Y367C mutant assessed as improvement in dwarfism by measuring femur bone size at 0.5 mg/kg, sc qd administered for 15 days. The class given is functional. The conditions noted are these: time 15 day.
Assay [24] has as its system Bone. The assay is described as follows: Induction of bone regrowth in achondroplasia C57BL/6 mouse model expressing FGFR3 Y367C mutant assessed as improvement in dwarfism by measuring ulna bone size at 2 mg/kg, sc administered for 15 days. The class given is functional. The conditions noted are these: time 15 day.
The subject of assay [25] is Bone. Briefly: Induction of bone regrowth in achondroplasia FVB mouse model assessed as improvement in dwarfism by measuring spine size at 203 microg/kg, sc qd administered for 35 days. The class given is functional. The conditions noted are these: dose 203 µg/kg, time 35 day.
The test system of assay [26] is Bone. Briefly: Induction of bone regrowth in achondroplasia FVB mouse model assessed as improvement in dwarfism by measuring tibia size at 203 microg/kg, sc qd administered for 35 days. The format is functional. The conditions noted are these: dose 203 µg/kg, time 35 day.
A short description of assay [27]: Induction of bone regrowth in achondroplasia Cynomolgus monkey model assessed as improvement in dwarfism by measuring ulna size at 203 microg/kg, sc qd administered for 35 days. The class given is functional, Macaca fascicularis. The conditions noted are these: dose 203 µg/kg, time 35 day.
Assay [28] relates to Bone. The assay is described as follows: Induction of bone regrowth in achondroplasia FVB mouse model assessed as improvement in dwarfism by measuring femur size at 203 microg/kg, sc administered as continuous infusion for 35 days. The format is functional. The conditions noted are these: dose 203 µg/kg, time 35 day.
For assay [29], the system named is Bone. The assay is described as follows: Induction of bone regrowth in achondroplasia FVB mouse model assessed as improvement in dwarfism by measuring tibia size at 203 microg/kg, sc administered as continuous infusion for 35 days. The class given is functional. The conditions noted are these: dose 203 µg/kg, time 35 day.
Assay [30] has as its system Bone. Briefly: Induction of bone regrowth in achondroplasia FVB mouse model assessed as improvement in dwarfism by measuring femur size at 203 microg/kg, sc qd administered for 35 days. The format is functional. The conditions noted are these: dose 203 µg/kg, time 35 day.
For assay [31], the system named is Bone. The assay is described as follows: Induction of bone regrowth in achondroplasia FVB mouse model assessed as improvement in dwarfism by measuring spine size at 203 microg/kg, sc administered as continuous infusion for 35 days. The class given is functional. The conditions noted are these: dose 203 µg/kg, time 35 day.
A short description of assay [32]: Induction of bone regrowth in achondroplasia Cynomolgus monkey model assessed as improvement in dwarfism by measuring tail size at 203 microg/kg, sc qd administered for 35 days. The class given is functional, Macaca fascicularis. The conditions noted are these: dose 203 µg/kg, time 35 day.

In the case of VOSORITIDE, the result in the assay on Bone [1], in the assay with Bone [2] and with Bone [8] was inactive. For the same molecule, the Activity with Bone [3] worked out at 2.9%; in the assay with Bone [4] it was 2.8%; in the assay with Bone [5], 3.3%; with Bone [6], 6.6%; with Bone [7], 4.8%; in the assay with Bone [9] it was 8%. In addition, the Activity in the assay with Bone [10] turned out to be 3.7%; with Bone [11], 3.4%; in the assay on Bone [12], 5.2%.
Turning to `CCN1CCN(c2ccc(Nc3cc(N(C)C(=O)Nc4c(Cl)c(OC)cc(OC)c4Cl)ncn3)cc2)CC1` [INFIGRATINIB], the Activity with Bone [13] turned out to be 26.5%; with Bone [14], 32.6%; in the assay with Bone [15], 11.9%; in the assay with Bone [16] it was 16.8%; with Bone [17], 16%; in the assay with Bone [18] it was 20.9%. The Activity in the assay on Bone [19] is 11%; with Bone [20], 12.1%; in the assay with Bone [21], 20.9%; in the assay on Bone [22], 7%; in the assay with Bone [23] it was 11%; in the assay with Bone [24], 22.3%.
`CC[C@H](C)[C@@H]1NC(=O)[C@H](CCCNC(=N)N)NC(=O)[C@H](CC(=O)O)NC(=O)[C@H](CC(C)C)NC(=O)[C@H](CCCCN)NC(=O)[C@H](CC(C)C)NC(=O)CNC(=O)[C@H](Cc2ccccc2)NC(=O)[C@@H](NC(=O)CNC(=O)[C@H](CCCCN)NC(=O)[C@H](CO)NC(=O)[C@H](CC(C)C)NC(=O)CNC(=O)[C@H](CCCCN)NC(=O)[C@H](CCCCN)NC(=O)[C@H](CC(N)=O)NC(=O)[C@H](C)NC(=O)CNC(=O)[C@H](CCCCN)NC(=O)[C@H](Cc2ccc(O)cc2)NC(=O)[C@H](CCCCN)NC(=O)[C@H](CCCNC(=N)N)NC(=O)[C@H](C)NC(=O)[C@H](CC(N)=O)NC(=O)[C@@H]2CCCN2C(=O)[C@H](Cc2c[nH]cn2)NC(=O)[C@H](CCC(=O)O)NC(=O)[C@H](CCC(N)=O)NC(=O)[C@@H](N)CC(C)C)CSSC[C@@H](C(=O)O)NC(=O)CNC(=O)[C@H](CC(C)C)NC(=O)CNC(=O)[C@H](CO)NC(=O)[C@H](CCSC)NC(=O)[C@H](CO)NC(=O)CNC1=O`: the Activity is recorded as 11.3% in the assay on Bone [25]; 4% with Bone [26]; 2.7% in assay [27]; 7.1% with Bone [28]; 12.2% in the assay with Bone [29]; 5.5% in the assay with Bone [30]. The Activity in the assay on Bone [31] came to 25%; in assay [32] it was 9%.
